Reference: ChEMBL document CHEMBL1201861, “Genomics of Drug Sensitity in Cancer screening data, Wellcome Trust Sanger Institute”

How the values were obtained:
Assay in all cases: cells
Conditions in all cases: Homo sapiens
[1] = tested on: CAL-54; format: functional, cell-based;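 note: growth inhibition of CAL-54 cells, read out by a viability measurement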
Description: SANGER: Inhibition of human CAL-54 cell growth in a cell viability assay.

[2] = tested on: CAMA-1; format: functional, cell-based;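 note: growth inhibition of CAMA-1 cells, read out with a cell viability assay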
Description: SANGER: Inhibition of human CAMA-1 cell growth in a cell viability assay.

[3] = tested on: BPH-1; format: functional, cell-based;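 note: cell viability assay measuring growth inhibition of human BPH-1 cells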
Description: SANGER: Inhibition of human BPH-1 cell growth in a cell viability assay.

[4] = tested on: SAOS-2; format: functional, cell-based;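 note: growth inhibition of human Saos-2 cells determined by a cell viability assay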
Description: SANGER: Inhibition of human Saos-2 cell growth in a cell viability assay.

[5] = tested on: HCC70; format: functional, cell-based;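 note: cell viability assay measuring how strongly the compound suppresses proliferation of HCC70 cells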
Description: SANGER: Inhibition of human HCC70 cell growth in a cell viability assay.

[6] = tested on: A2780; format: functional, cell-based;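 note: growth inhibition of A2780 cells, read out with a cell viability assay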
Description: SANGER: Inhibition of human A2780 cell growth in a cell viability assay.

[7] = tested on: SW948; format: functional, cell-based;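 note: growth inhibition of SW948 cells, read out with a cell viability assay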
Description: SANGER: Inhibition of human SW948 cell growth in a cell viability assay.

[8] = tested on: MIA PaCa-2; format: functional, cell-based;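 note: growth inhibition of MIA PaCa-2 cells, read out with a cell viability assay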
Description: SANGER: Inhibition of human MIA-PaCa-2 cell growth in a cell viability assay.

[9] = tested on: CAL-33; format: functional, cell-based;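 note: growth inhibition of CAL-33 cells, read out with a cell viability assay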
Description: SANGER: Inhibition of human CAL-33 cell growth in a cell viability assay.

[10] = tested on: NCI-H1573; format: functional, cell-based;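 note: growth inhibition of NCI-H1573 cells, read out with a cell viability assay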
Description: SANGER: Inhibition of human NCI-H1573 cell growth in a cell viability assay.

[11] = tested on: COLO-741; format: functional, cell-based
Description: SANGER: Inhibition of human COLO-741 cell growth in a cell viability assay.

[12] = tested on: NCI-H2087; format: functional, cell-based;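 note: growth inhibition determined with a cell viability readout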
Description: SANGER: Inhibition of human NCI-H2087 cell growth in a cell viability assay.

[13] = tested on: DU-145; format: functional, cell-based
Description: SANGER: Inhibition of human DU-145 cell growth in a cell viability assay.

[14] = tested on: TYK-nu; format: functional, cell-based;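 note: growth inhibition of human TYK-nu cells, read out by a cell viability assay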
Description: SANGER: Inhibition of human TYK-nu cell growth in a cell viability assay.

[15] = tested on: KYSE-510; format: functional, cell-based;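 note: cell viability readout used to measure how strongly growth of the cell line is suppressed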
Description: SANGER: Inhibition of human KYSE-510 cell growth in a cell viability assay.

[16] = tested on: HT1197; format: functional, cell-based, HT-1197
Description: SANGER: Inhibition of human HT-1197 cell growth in a cell viability assay.

[17] = tested on: 769-P; format: functional, cell-based
Description: SANGER: Inhibition of human 769-P cell growth in a cell viability assay.

[18] = tested on: VM-CUB-1; format: functional, cell-based;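 note: cell viability assay measuring growth inhibition of the human VM-CUB-1 cell line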
Description: SANGER: Inhibition of human VM-CUB-1 cell growth in a cell viability assay.

[19] = tested on: UMUC3; format: functional, cell-based;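 note: growth inhibition of human UM-UC-3 cells, read out with a cell viability assay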
Description: SANGER: Inhibition of human UM-UC-3 cell growth in a cell viability assay.

[20] = tested on: D-392MG; format: functional, cell-based
[21] = tested on: KYSE-150 cell line; format: functional, cell-based;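 note: growth inhibition of human KYSE-150 cells, read out with a cell viability assay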
Description: SANGER: Inhibition of human KYSE-150 cell growth in a cell viability assay.

[22] = tested on: LCLC-97TM1; format: functional, cell-based;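 note: cell viability assay measuring growth inhibition of human LCLC-97TM1 cells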
Description: SANGER: Inhibition of human LCLC-97TM1 cell growth in a cell viability assay.

[23] = tested on: LN-405; format: functional, cell-based
Description: SANGER: Inhibition of human LN-405 cell growth in a cell viability assay.

[24] = tested on: HCC1806; format: functional, cell-based;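 note: growth inhibition of the cancer cell line, determined with a cell viability assay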
Description: SANGER: Inhibition of human HCC1806 cell growth in a cell viability assay.

[25] = tested on: SCC-25; format: functional, cell-based;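 note: growth inhibition of SCC-25 cells, measured with a cell viability assay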
Description: SANGER: Inhibition of human SCC-25 cell growth in a cell viability assay.

[26] = tested on: NCI-H520; format: functional, cell-based;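 note: growth inhibition of NCI-H520 cells, measured by a cell viability assay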
Description: SANGER: Inhibition of human NCI-H520 cell growth in a cell viability assay.

[27] = tested on: FaDu; format: functional, cell-based;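 note: cell viability readout of growth inhibition in FaDu cells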
Description: SANGER: Inhibition of human FADU cell growth in a cell viability assay.

[28] = tested on: COR-L105; format: functional, cell-based;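 note: cell growth inhibition determined with a viability assay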
Description: SANGER: Inhibition of human COR-L105 cell growth in a cell viability assay.

[29] = tested on: A2058; format: functional, cell-based;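 note: reduction of A2058 cell growth, read out with a viability assay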
Description: SANGER: Inhibition of human A2058 cell growth in a cell viability assay.

[30] = tested on: HPAF-II; format: functional, cell-based;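 note: growth inhibition of HPAF-II cells, read out with a cell viability assay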
Description: SANGER: Inhibition of human HPAF-II cell growth in a cell viability assay.

[31] = tested on: FTC-133; format: functional, cell-based
[32] = tested on: ACHN; format: functional, cell-based;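 note: cell viability read-out used to gauge how strongly growth of human ACHN cells is suppressed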
Description: SANGER: Inhibition of human ACHN cell growth in a cell viability assay.

[33] = tested on: CAL-72; format: functional, cell-based;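 note: cell viability assay measuring inhibition of proliferation in the CAL-72 cell line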
Description: SANGER: Inhibition of human CAL-72 cell growth in a cell viability assay.

[34] = tested on: LoVo; format: functional, cell-based;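 note: growth inhibition of human LoVo cells, read out with a cell viability assay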
Description: SANGER: Inhibition of human LoVo cell growth in a cell viability assay.

[35] = tested on: GP5d; format: functional, cell-based;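 note: growth inhibition of human GP5d cells, read out with a cell viability assay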
Description: SANGER: Inhibition of human GP5d cell growth in a cell viability assay.

[36] = tested on: SW1990; format: functional, cell-based;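 note: cell growth inhibition determined with a viability assay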
Description: SANGER: Inhibition of human SW1990 cell growth in a cell viability assay.

[37] = tested on: MKN-28; format: functional, cell-based;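 note: cell viability assay read-out, IC50 reflects suppression of growth of human MKN-28 cells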
Description: SANGER: Inhibition of human MKN28 cell growth in a cell viability assay.

[38] = tested on: COLO-678; format: functional, cell-based
Description: SANGER: Inhibition of human COLO-678 cell growth in a cell viability assay.

[39] = tested on: Capan-2; format: functional, cell-based;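 note: Capan-2 cell growth inhibition, read out with a viability assay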
Description: SANGER: Inhibition of human Capan-2 cell growth in a cell viability assay.

[40] = tested on: NCI-H727; format: functional, cell-based;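 note: growth inhibition of human NCI-H727 cells, read out with a cell viability assay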
Description: SANGER: Inhibition of human NCI-H727 cell growth in a cell viability assay.

[41] = tested on: H4; format: functional, cell-based
Description: SANGER: Inhibition of human H4 cell growth in a cell viability assay.

[42] = tested on: J82; format: functional, cell-based;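 note: growth inhibition of J82 cells, read out with a cell viability assay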
Description: SANGER: Inhibition of human J82 cell growth in a cell viability assay.

[43] = tested on: SK-N-AS; format: functional, cell-based;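 note: growth inhibition of human SK-N-AS cells, measured with a cell viability assay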
Description: SANGER: Inhibition of human SK-N-AS cell growth in a cell viability assay.

[44] = tested on: NCI-H1563; format: functional, cell-based;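 note: growth inhibition of human NCI-H1563 cells, read out with a cell viability assay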
Description: SANGER: Inhibition of human NCI-H1563 cell growth in a cell viability assay.

## CC1(C)CCC(c2ccc(Cl)cc2)=C(CN2CCN(c3ccc(C(=O)NS(=O)(=O)c4ccc(N[C@H](CCN5CCOCC5)CSc5ccccc5)c(S(=O)(=O)C(F)(F)F)c4)cc3)CC2)C1 [NAVITOCLAX]
[1]
  IC50: > 2 µM
[2]
  IC50: > 2 µM
[3]
  IC50: > 2 µM
[4]
  IC50: > 2 µM
[5]
  IC50: > 2 µM
[6]
  IC50: > 2 µM
[7]
  IC50: > 2 µM
[8]
  IC50: > 2 µM
[9]
  IC50: > 2 µM
[10]
  IC50: > 2 µM
[11]
  IC50: > 2 µM
[12]
  IC50: > 2 µM
[13]
  IC50: 0.899 µM
[14]
  IC50: > 2 µM
[15]
  IC50: > 2 µM
[16]
  IC50: > 2 µM
[17]
  IC50: > 2 µM
[18]
  IC50: > 2 µM
[19]
  IC50: > 2 µM
[20]
  IC50: > 2 µM
[21]
  IC50: > 2 µM
[22]
  IC50: > 2 µM
[23]
  IC50: > 2 µM
[24]
  IC50: > 2 µM
[25]
  IC50: > 2 µM
[26]
  IC50: > 2 µM
[27]
  IC50: > 2 µM
[28]
  IC50: > 2 µM
[29]
  IC50: > 2 µM
[30]
  IC50: 0.926 µM
[31]
  IC50: > 2 µM
[32]
  IC50: > 2 µM
[33]
  IC50: > 2 µM
[34]
  IC50: > 2 µM
[35]
  IC50: > 2 µM
[36]
  IC50: > 2 µM
[37]
  IC50: > 2 µM
[38]
  IC50: > 2 µM
[39]
  IC50: > 2 µM
[40]
  IC50: > 2 µM
[41]
  IC50: > 2 µM
[42]
  IC50: > 2 µM
[43]
  IC50: > 2 µM
[44]
  IC50: > 2 µM

## CS(=O)(=O)N1CCN(Cc2cc3nc(-c4cccc5[nH]ncc45)nc(N4CCOCC4)c3s2)CC1 [PICTILISIB]
[1]
  IC50: 1.07 µM
[2]
  IC50: > 4 µM
[3]
  IC50: 0.314 µM
[4]
  IC50: 1.33 µM
[5]
  IC50: 2.87 µM
[6]
  IC50: > 4 µM
[7]
  IC50: > 4 µM
[8]
  IC50: > 4 µM
[9]
  IC50: > 4 µM
[10]
  IC50: > 4 µM
[11]
  IC50: > 4 µM
[12]
  IC50: > 4 µM
[13]
  IC50: > 4 µM
[14]
  IC50: 1.96 µM
[15]
  IC50: > 4 µM
[16]
  IC50: > 4 µM
[17]
  IC50: 3.83 µM
[18]
  IC50: > 4 µM
[19]
  IC50: > 4 µM
[20]
  IC50: > 4 µM
[21]
  IC50: > 4 µM
[22]
  IC50: 2.69 µM
[23]
  IC50: > 4 µM
[24]
  IC50: > 4 µM
[25]
  IC50: 0.914 µM
[26]
  IC50: 1.09 µM
[27]
  IC50: > 4 µM
[28]
  IC50: > 4 µM
[29]
  IC50: > 4 µM
[30]
  IC50: 3.1 µM
[31]
  IC50: > 4 µM
[32]
  IC50: > 4 µM
[33]
  IC50: > 4 µM
[34]
  IC50: 0.778 µM
[35]
  IC50: > 4 µM
[36]
  IC50: > 4 µM
[37]
  IC50: > 4 µM
[38]
  IC50: > 4 µM
[39]
  IC50: > 4 µM
[40]
  IC50: > 4 µM
[41]
  IC50: 0.851 µM
[42]
  IC50: > 4 µM
[43]
  IC50: > 4 µM
[44]
  IC50: 0.916 µM

## CN(C)CCOc1ccc(-c2nc(-c3ccncc3)c(-c3ccc4c(c3)CC/C4=N\O)[nH]2)cc1 [SB590885]
[1]
  IC50: > 5 µM
[2]
  IC50: > 5 µM
[3]
  IC50: > 5 µM
[4]
  IC50: > 5 µM
[5]
  IC50: > 5 µM
[6]
  IC50: > 5 µM
[7]
  IC50: > 5 µM
[8]
  IC50: > 5 µM
[9]
  IC50: > 5 µM
[10]
  IC50: > 5 µM
[11]
  IC50: > 5 µM
[12]
  IC50: > 5 µM
[13]
  IC50: > 5 µM
[14]
  IC50: 1.8 µM
[15]
  IC50: > 5 µM
[16]
  IC50: > 5 µM
[17]
  IC50: > 5 µM
[18]
  IC50: > 5 µM
[20]
  IC50: > 5 µM
[21]
  IC50: > 5 µM
[22]
  IC50: > 5 µM
[23]
  IC50: > 5 µM
[24]
  IC50: > 5 µM
[25]
  IC50: > 5 µM
[26]
  IC50: > 5 µM
[27]
  IC50: > 5 µM
[28]
  IC50: > 5 µM
[29]
  IC50: > 5 µM
[30]
  IC50: > 5 µM
[31]
  IC50: > 5 µM
[33]
  IC50: > 5 µM
[34]
  IC50: > 5 µM
[35]
  IC50: > 5 µM
[36]
  IC50: > 5 µM
[37]
  IC50: > 5 µM
[38]
  IC50: > 5 µM
[39]
  IC50: > 5 µM
[40]
  IC50: > 5 µM
[41]
  IC50: > 5 µM
[43]
  IC50: > 5 µM
[44]
  IC50: > 5 µM
